Inhibition and IC50 data for eight molecules are collected here from US5534536A, “Fused phenol derivatives” (Ono Pharmaceuticals Co. Ltd., priority 1993, dated 1996).

Structures are written as SMILES. Where a name gives a salt, the structure may show the parent alone.

In experiment [1] the test system is leukotriene B4 (LTB4) production from human whole blood. Description: Effect on leukotriene B4 (LTB4) production from human whole blood. Type of experiment: cell-based. As to conditions: Ca ionophore A23187 stimulated, plasma LTB4 by EIA. Here is the method: (§1) iii) Effect on leukotriene B4 (LTB4) and TXB2 production from human whole blood […] The incubation was carried out for 5 min and terminated by centrifugation (12,000 rpm for 1-2 min). Resultant plasma was stocked at -70° C. until determination of the levels of LTB4 and TXB2. Plasma levels of LTB4 and TXB2 were determined by commercially available EIA kits (Cayman Chemical Company) following partial purification. The effect of compound tested was expressed as percentage inhibition against the amounts of LTB4 and TXB2 generated in vehicle (50% ethanol solution)-treated group.

Experiment [2] has as its system TXB2 production from human whole blood. Description: Effect on TXB2 production from human whole blood. It counts as cell-based. To be noted: Ca ionophore A23187 stimulated, plasma TXB2 by EIA. Here is the method:
as §1

In experiment [3] the target is T1, human thromboxane A2 synthetase (Homo sapiens, UniProt P24557).
T1 construct: Washed platelet was prepared from citrate-treated [1/9 (v/v)] human peripheral blood; endogenous in cells; host or cells: washed platelets from human peripheral blood
T1 sequence (P24557 1-533): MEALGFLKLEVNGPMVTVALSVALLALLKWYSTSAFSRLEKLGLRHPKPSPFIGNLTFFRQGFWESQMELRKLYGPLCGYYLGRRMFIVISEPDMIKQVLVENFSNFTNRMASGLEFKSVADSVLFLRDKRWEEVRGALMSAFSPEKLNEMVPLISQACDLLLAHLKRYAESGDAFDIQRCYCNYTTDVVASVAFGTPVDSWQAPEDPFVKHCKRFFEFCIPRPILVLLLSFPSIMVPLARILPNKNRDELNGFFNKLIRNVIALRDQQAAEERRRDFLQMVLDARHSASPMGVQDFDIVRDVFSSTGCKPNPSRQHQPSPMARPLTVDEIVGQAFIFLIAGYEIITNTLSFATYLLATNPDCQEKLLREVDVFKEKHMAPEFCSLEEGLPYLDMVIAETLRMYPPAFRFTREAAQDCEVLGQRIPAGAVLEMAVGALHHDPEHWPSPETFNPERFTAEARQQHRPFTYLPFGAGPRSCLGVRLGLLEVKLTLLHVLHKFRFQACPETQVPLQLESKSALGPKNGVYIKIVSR
As to the kind of experiment: Effect on human thromboxane A2 synthetase activity (washed platelets). To be noted: conversion of 14C-arachidonic acid into TXB2, 37° C., 2 min. It counts as cell-based. Here is the method:
ii) Effect on human thromboxane A2 synthetase activity
Washed platelet was prepared from citrate-treated [1/9 (v/v)] human peripheral blood and suspended in Ca^++ -free Krebs-Henseleit solution (pH 7.4) at a concentration of 10.8×10^7 cells/mi. The assay mixture contained 185 μl of cell suspension, 5 μl of test compound and 10 μl of 100 μM ^14 C-arachidonic acid. Before the reaction was started by the addition of ^14 C-arachidonic acid, the other components were equilibrated for 2 min at 37 ° C. The incubation was carried out at 37° C. for 2 min and terminated by the addition of 300 μl of a mixture of diethyl ether/methanol/1M citric acid (30/4/1). The contents were mixed and then centrifuged for 2 min at 1700 G at 4° C. The products in the resultant organic layer were chromatographed on silica gel thin-layer using a solvent system of a mixture of ethyl acetate/isooctane/acetic acid/H2 O (110/50/20/100) and then autoradiographed on X-ray film. The arachidonic acid metabolites and residual substrate were quantified by chromatoscanner. TXA2 synthetase activity was expressed as the conversion rate of total radioactivity into thromboxane B2 (TXB2), a stable metabolite of TXA2. The effects of compounds tested were expressed as percentage inhibition against the conversion rate of total radioactivity into TXB2 in vehicle (50% ethanol solution)-treated group.

Experiment [4] concerns lipid peroxides (TBARS) in rat liver homogenate. As to the kind of experiment: Antioxidant action (lipid peroxides as TBARS in rat liver homogenate). As to conditions: FeCl2-initiated, 1 hr at 37° C. Type of experiment: biochemical, Sprague-Dawley rat. Here is the method:
Male Sprague-Dawley rat fasted overnight was anesthetized with diethyl ether, and liver was perfused, isolated and homogenized with 1.15% KCl (10% homogenate). The assay mixture contained 200 μl of liver homogenate, 5 μl of test compound and 10 μl of 4.4 mM FeCl2. The reaction was initiated by the addition of FeCl2, and the incubation was carried out for 1 hr at 37° C. The amounts of lipid peroxides produced during this incubation period were determined as thiobarbituric acid reactive substances (TBARS) according to the method described by OHKAWA et. al. (Analytical Biochemistry, 95, 351-358, 1979). The effects of compounds tested were expressed as percentage inhibition against the amounts of TBARS produced in vehicle (50% ethanol solution)-treated group.

The target in experiment [5] is T2, human 5-lipoxygenase (Homo sapiens, UniProt P09917).
T2 construct: cytosol fraction of polymorphonuclear leukocytes prepared from human peripheral blood; endogenous in cells; host or cells: polymorphonuclear leukocytes from human peripheral blood (cytosol fraction)
T2 sequence (P09917 1-674): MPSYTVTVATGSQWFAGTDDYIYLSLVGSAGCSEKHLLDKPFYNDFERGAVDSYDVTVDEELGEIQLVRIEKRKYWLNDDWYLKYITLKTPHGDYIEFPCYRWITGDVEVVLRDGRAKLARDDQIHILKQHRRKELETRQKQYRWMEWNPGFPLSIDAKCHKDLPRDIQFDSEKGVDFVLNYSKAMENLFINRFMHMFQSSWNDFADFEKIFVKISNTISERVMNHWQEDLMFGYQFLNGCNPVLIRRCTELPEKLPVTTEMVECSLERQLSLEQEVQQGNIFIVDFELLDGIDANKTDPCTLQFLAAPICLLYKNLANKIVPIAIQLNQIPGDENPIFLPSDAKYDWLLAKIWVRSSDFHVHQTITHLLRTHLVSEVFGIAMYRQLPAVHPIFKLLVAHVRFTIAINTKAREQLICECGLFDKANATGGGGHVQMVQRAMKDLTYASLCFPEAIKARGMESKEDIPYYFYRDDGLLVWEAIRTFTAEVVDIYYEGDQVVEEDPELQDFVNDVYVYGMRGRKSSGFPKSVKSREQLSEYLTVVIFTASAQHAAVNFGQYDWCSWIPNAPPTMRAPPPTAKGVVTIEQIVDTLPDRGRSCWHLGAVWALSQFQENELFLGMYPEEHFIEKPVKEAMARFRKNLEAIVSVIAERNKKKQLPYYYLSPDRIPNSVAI
Description: Effect on human 5-lipoxygenase activity (cytosol fraction of polymorphonuclear leukocytes). It counts as biochemical. To be noted: human PMN leukocyte cytosol fraction; 14C-arachidonic acid; 30° C., 1 min, pH 7.4. Here is the method:
i) Effect on human 5-lipoxygenase activity
The assay mixture consisted of 85 μl of potassium/phosphate buffer (pH 7.4) containing 1.18 mM of calcium ion, 5 μl of cytosol fraction of polymorphonuclear leukocytes prepared from human peripheral blood and 5 μl of test compound. The reaction was initiated by the addition of 5 μl of 1 mM ^14 C-arachidonic acid after 5 min equilibration period. The incubation was carried out at 30° C. for 1 min and terminated by the addition of 300 μl of a ice-cold mixture of diethyl ether/methanol/1M citric acid (30/4/1). The mixture was mixed vigorously and centrifuged at 1700 G for 2 min at 4° C. The resultant organic layer was treated with sodium borohydride, kept cold for more than 10 min and then evaporated to dryness under gentle stream of nitrogen. After 200 μl of a mixture of diethyl ether/methanol (30/4) was added to the test tube, the contents were extracted by the addition of 100 μl of 1M citric acid followed by centrifugation (1700 G for 2 min at 4° C.). The products in the upper layer were chromatographed on silica gel thin-layer with a solvent system of diethyl ether/petroleum ether/acetic acid (85/15/0.01) and autoradiographed on X-ray film. The arachidonic acid metabolites and residual substrate were quantified by chromatoscanner. The 5-lipoxygenase activity was calculated by subtracting the conversion rate of total radioactivity into 15-hydroxy eicosatetraenoic acid from total radioactivity. The effect of compounds tested were expressed as percentage inhibition against 5-lipoxygenase activity in the vehicle (50% ethanol solution)-treated group.

For orientation: inhibition means the drop in the measured response relative to a control, in per cent. A lower inhibition goes with little suppression. Turning to `Cc1c(O)c(CCCSc2ccccc2)c2c(c1CCn1ccnc1)OC(C)(C)C2` [2(v)], the inhibition at 10 µM worked out at 61% in experiment [1] and 89% in experiment [2].

As for `Cc1c(O)c(CC(C)C)c2c(c1CCn1ccnc1)OC1(CCCC1)C2` [2(x)], the inhibition at 10 µM in experiment [1] stood at 70%; in experiment [2] it was 82%.

For orientation: IC50 means the midpoint of a concentration-inhibition curve. For the molecule `CC1(C)CCc2c(Cn3ccnc3)c(O)c3ccccc3c2O1` [4(e)], the IC50 came out at 8600 nM in experiment [3], 2600 nM in experiment [4] and 690 nM in experiment [5].

As to `Cc1c(O)c(C(C)C)c2c(c1CCn1ccnc1)OC(C)(C)C2` [Example 2, 5-Hydroxy-2,2,6-trimethyl-4-isopropyl-7(2-(1-imidazolyl)ethyl)-2,3-dihydrobenzofuran hydrochloride], the inhibition at 10 µM worked out at 74% in experiment [1] and 92% in experiment [2].

Regarding `COCOc1c(C)c(CCCOc2cccnc2)c2c(c1C)CCC(C)(C)O2` [Example 10], the IC50 stood at 1400 nM in experiment [3], 4000 nM in experiment [4] and 480 nM in experiment [5].

`Cc1c(O)c(C)c2c(c1CCCOc1cccnc1)OC(C)(C)CC2` [Example 11]: the IC50 amounted to 550 nM in experiment [3], 3700 nM in experiment [4] and 1100 nM in experiment [5].

As for `Cc1c(O)c(CCCn2ccnc2)cc2c1CC(C)(C)O2` [Example 13], the IC50 in experiment [3] was 1000 nM; in experiment [5], 460 nM.

As for `COC(C)(C)Cc1c(O)c(C)c(CCn2ccnc2)c2c1CC(C)(C)O2` [Example 17], the inhibition at 10 µM came out at 22% in experiment [1] and 36% in experiment [2].
